The values that follow come from article PMC3097154, “Antiviral activity of α-helical stapled peptides designed from the HIV-1 capsid dimerization domain” (Retrovirology, 2011).

Like-named read-outs stand apart in the source and are kept apart here. Positions of bridges follow the written chain, without caps; N, C: chain ends. Non-standard residues stand in square brackets, D forms with d. Residues, ends and D or L forms follow the SMILES beside them. S5 = C=CCCC[C@](C)(N)C(=O)O

In data set [1] the test system is wild type CTD (wtCTD) of HIV-1 CA. The data set can be described thus: ITC dilution of CTD dimers in presence of peptide. The class given is binding. Particulars: for Kdiss (apparent CTD dimer dissociation constant): ITC dilution, 30°C; for 200 μM CTD (fm), estimated fraction of CTD occurring as monomers: calculated from monomer-dimer equilibrium expressions. The protocol:
The effect of the dimer interface peptide, NYAD-203, a soluble analog of NYAD-201, on dimer dissociation was first examined by isothermal titration calorimetry (ITC). Dilution of CTD by sequential ITC injections into buffer, pH 7.3, 30°;C gave a series of endothermic heat pulses (Figure 4) consistent with dissociation of protein oligomers modeled as dimers, with dimer dissociation constant (Kdiss) ~15 μM and dissociation enthalpy (ΔHdiss) of 10.7 kcal mole^-1. […] For such a mechanism, the apparent dimer dissociation constant should depend on the free peptide (inhibitor) concentration ([I]) and binding affinity (KI) as follows: [drawing 1]
or an approximate form that might be valid at high inhibitor concentrations: [drawing 2]
where Ci is the total peptide inhibitor concentration in the mixture. This analysis is, however, further complicated by apparent self-association of the peptide (see NMR section) that reduces the availability of free monomer (lower [I]) at higher concentrations and thus leads to underestimation of peptide binding affinities and a concentration dependence of apparent Ki. However, by use of the above equations and extrapolation to low concentrations, we obtain a value of Ki = 40 (±5) μM for the binding of stapled peptide (NYAD-203) monomer to CTD under these conditions.
The influence of the peptides on dimer dissociation of wild type CTD (wtCTD) was investigated by ITC (MicroCal VP-ITC) following established protocols. Proteins were exhaustively dialyzed against the 25 mM sodium phosphate buffer (pH 7.3) prior to experimental measurements. In a typical experiment, the ITC injection syringe was loaded with 250 μM protein, dissolved in dialysis buffer or dialysis buffer/peptide mixture and the calorimetric cell (ca. 1.4 ml active volume) initially contained only the identical buffer mixture. Typically titrations consisted of 28 injections of 10 μl, with 240-s equilibration between injections. The thermodynamic parameters were obtained and data were analyzed using MicroCal Origin 7.0 software, using an updated and corrected (June 2008) version of the dissociation analysis procedure, validated by comparison with earlier analysis methods.

Data set [2] deals with monomeric CTD mutant (W184A/M185A). The data set can be described thus: Binding to monomeric CTD mutant. Conditions: data not shown. On the set-up: species or system HIV-1.
The nature of data set [3]: NMR of isolated peptide (self-association). The class given is physicochemical. Conditions: 20 mM phosphate buffer pH 7.0, 288 K.
The next data set has as its system HIV-1 CA. Conditions: 25°C, pH 7.3, ideal single-species model, CA alone 41,213.
In data set [4] the test system is GFP-Vpr-labeled HIV-1 virions in SupT1 cells. The data set can be described thus: Virus entry, GFP-Vpr-labeled HIV-1 virions, FACS. The class given is cell-based. Particulars: 111 nM.

Regarding `CSCC[C@@H]1NC(=O)[C@H](Cc2c[nH]c3ccccc23)NC(=O)[C@@](C)(NC(=O)[C@H](CCCCN)NC(=O)[C@@H](NC(=O)[C@H](C)NC(=O)[C@H](CCC(N)=O)NC(=O)[C@H](C)N)C(C)C)CCC/C=C\CCC[C@@](C)(C(=O)N[C@H](C(=O)N[C@@H](CC(C)C)C(=O)N[C@@H](CC(C)C)C(=O)N[C@H](C(=O)N[C@@H](C)C(=O)N[C@@H](CCCCN)C(=O)N[C@@H](CCCCN)C(=O)N[C@@H](CCCCN)C(=O)O)C(C)C)[C@@H](C)O)NC(=O)[C@H]([C@@H](C)O)NC1=O` [NYAD-203] (H-AQAVK[S5]WMT[S5]TLLVAKKK-OH; staple (Z) 6-10; N-terminus and C-terminus assumed), the “Kdiss (apparent CTD dimer dissociation constant)” value is 31.2 (±6.6) μM in data set [1] (CI 50 μM NYAD-203, 25 mM sodium phosphate pH 7.3, 250 μM CTD in syringe); 33.2 (±3.9) μM in data set [1] (CI 200 μM NYAD-203, pH 7.3); 40.5 (±6.2) μM in data set [1] (CI 350 μM NYAD-203, pH 7.3). For the same molecule, the figures for the “200 μM CTD (fm), estimated fraction of CTD occurring as monomers” value in data set [1] (CI 50 μM NYAD-203), in data set [1] (CI 200 μM NYAD-203) and in data set [1] (CI 350 μM NYAD-203) were 24%, 25% and 27%, respectively. Moreover, the “affinity for monomeric CTD mutant (W184A/M185A)” value in data set [2] is listed as “no measurable affinity”. For the same molecule, in data set [3], the “self-association of isolated peptide” value was “self-associates to form polymeric species”. The “apparent molecular weight of CA” value with HIV-1 CA (CA:NYAD-203 = 1:1 (30 μM CA, 30 μM peptide)) is reported as 30,343 Daltons; with HIV-1 CA (CA:NYAD-203 = 1:3 (30 μM CA, 90 μM peptide)) it was 27,338 Daltons.

For the molecule IRQGPKEPFRDYVDR [NYAD-401], in data set [1] (unstapled control peptide), the “ITC heat effect (binding)” value is “no apparent heat effect”.

enfuvirtide [T-20]: the “inhibition of viral entry” value in data set [4] is “substantially inhibited viral entry”.
